# Reference: publication PMC4096222 (Journal of Medicinal Chemistry, 2014)
# Read-outs that look alike come from different tables or passages of the source.
# What was measured:
# A/PR/8/34 (A/H1N1) = type: cell-based, influenza A virus
# MDCK cells = settings: for cytotoxicity MCC: minimum cytotoxic concentration, minimal alterations in cell morphology after 72 h, MDCK; for concentration at which visibly toxic: MDCK cells
# A/HK/7/87 = type: cell-based, influenza A virus; settings: for inhibition of plaque formation: at 0.5–2 μM, 72 h
# A/HK/7/87 (A/H3N2) = assay: microbe, parasite or virus in culture; type: cell-based; settings: Influenza A virus, H3N2, MDCK, 72 h, read-out: antiviral EC50 values against A/HK/7/87 (range)
# A/M2 wt = A/M2 wt (Influenza A virus, UniProt P0DOF5); type: cell-based
# [1] = read-out: antiviral activity A/PR/8/34 EC50 (MTS)
# [2] = read-out: antiviral activity A/PR/8/34 EC50 (CPE)
# A/M2 wt, sequence (P0DOF5 whole entry, looked up): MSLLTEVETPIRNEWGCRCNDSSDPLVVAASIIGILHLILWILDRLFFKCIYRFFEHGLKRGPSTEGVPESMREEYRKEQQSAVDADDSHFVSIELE
SMILES,EC50 (A/PR/8/34 (A/H1N1); [1]) [µM],cytotoxicity MCC (MDCK cells) [µM],activity in virus yield and plaque reduction assays (A/HK/7/87),EC50 (A/HK/7/87 (A/H3N2)) [µM],inhibition of wt channel (A/M2 wt),EC50 (A/PR/8/34 (A/H1N1); [2]) [µM],activity on A/M2 channels (A/M2 wt),inhibition of plaque formation (A/HK/7/87),concentration at which visibly toxic (MDCK cells) [nM],reduction in plaque size or number (A/HK/7/87)
"NC12CC3CC(CC(C3)C1)C2 [amantadine, reference compound]",34,,,,,,,,,
"C1=CC2C3CNCC3C1C1CC21.Cl (centres unmarked) [compound 4, 4-Azatetracyclo[5.3.2.0^2,6.0^8.10]dodec-11-ene Hydrochloride]",> 100,100,confirmed the activity,3 to 8,potent low-micromolar inhibitors,> 100,,,,
"Cl.N=C(N)N1CC2C3C=CC(C4CC34)C2C1 (centres unmarked) [compound 5, 4-Amidino-4-azatetracyclo[5.3.2.0^2,6.0^8.10]dodec-11-ene Hydrochloride]",> 100,100,,,potent low-micromolar inhibitors,> 100,,,,
"C1CC2C3CNCC3C1C1CC21.Cl (centres unmarked) [compound 6, 4-Azatetracyclo[5.3.2.0^2,6.0^8.10]dodecane Hydrochloride]",> 100,100,confirmed the activity,3 to 8,potent low-micromolar inhibitors,> 100,,,,
"Cl.N=C(N)N1CC2C3CCC(C4CC34)C2C1 (centres unmarked) [compound 7, 4-Amidino-4-azatetracyclo[5.3.2.0^2,6.0^8.10]dodecane Hydrochloride]",> 100,100,,,potent low-micromolar inhibitors,> 100,,,,
"C1=CC2C3CC3C1C1CN(C3CCNCC3)CC21.Cl (centres unmarked) [compound 8, 4-(4-Piperidinyl)-4-azatetracyclo[5.3.2.0^2,6.0^8.10]dodec-11-ene Dihydrochloride]",< 0.8,100,,,,≤ 0.8,did not display any activity,,,
"C1CC(N2CC3C4CCC(C5CC45)C3C2)CCN1.Cl (centres unmarked) [compound 9, 4-(4-Piperidinyl)-4-azatetracyclo[5.3.2.0^2,6.0^8.10]dodecane Dihydrochloride]",> 100,20,,,,> 100,did not display any activity,,,
"C1=CC2C1C1C=CC2C2CNCC12.Cl (centres unmarked) [compound 11, 4-Azatetracyclo[5.4.2.0^2,6.0^8.11]trideca-9,12-diene Hydrochloride]",< 0.8,,,,potent low-micromolar inhibitors,,,visible inhibition of plaque formation,,
"C1CC2C1C1CCC2C2CNCC12.Cl (centres unmarked) [compound 12, 4-Azatetracyclo[5.4.2.0^2,6.0^8.11]tridecane Hydrochloride]",> 100,,,,potent low-micromolar inhibitors,> 100,,,2000 to 8000,clear
"Cl.N=C(N)N1CC2C3C=CC(C4C=CC43)C2C1 (centres unmarked) [compound 13, 4-Amidino-4-azatetracyclo[5.4.2.0^2,6.0^8.11]trideca-9,12-diene Hydrochloride]",> 100,20,,,potent low-micromolar inhibitors,> 100,,visible inhibition of plaque formation,,
"Cl.N=C(N)N1CC2C3CCC(C4CCC43)C2C1 (centres unmarked) [compound 14, 4-Amidino-4-azatetracyclo[5.4.2.0^2,6.0^8.11]tridecane Hydrochloride]",> 100,4,,,potent low-micromolar inhibitors,> 100,,,2000 to 8000,modest
"CC12CC34CNCC35CC1(C)C(C)(C5)C2(C)C4.Cl (centres unmarked) [compound 18, 7,8,9,10-Tetramethyl-3-azapentacyclo[7.2.1.1^5,8.0^1,5.0^7,10]tridecane Hydrochloride]",,100,,,,,,visible inhibition of plaque formation,,
"CC12CC34CN(C(=N)N)CC35CC1(C)C(C)(C5)C2(C)C4.Cl (centres unmarked) [compound 19, 3-Amidino-7,8,9,10-tetramethyl-3-azapentacyclo[7.2.1.1^5,8.0^1,5.0^7,10]tridecane Hydrochloride]",> 100,≥4,,,,> 100,,,,
